{"source": "patent EP0276583A1", "about": "“Imidazole derivatives, processes for their preparation and their fungicidal properties” (Instituto de Investigacion Y Desarrollo Quimico Biologico …, priority 1987, dated 1988)", "key": {"[1]": {"assay": "Solubility of the product in solvents", "format": "physicochemical", "conditions": "free base (oily product)"}, "[2]": {"tested_on": "souris Swiss", "assay": "Acute oral toxicity in mice (Lichfield and Wilcoxon method)", "format": "in vivo", "conditions": "mortality over 7 days", "excerpt": "La toxicité aiguë des composés de l'invention a été déterminée par voie orale chez les souris Swiss des deux sexes, par la méthode de Lichfield et Wilcoxon. Des groupes de cinq souris de chaque sexe ont été traités par des doses croissantes du composé étudié et le taux de mortalité a été déterminé au cours des 7 jours suivant l'administration du produit.\nOn a trouvé les doses léthales (DL₅₀ en mg/kg) suivantes : […]"}, "[3]": {"conditions": "in benzène, éthanol, acétone, chloroforme"}, "[4]": {"conditions": "in eau, n-hexane, éther isopropylique, éther éthylique"}}}
{"smiles": "Fc1ccc(C(Cn2ccnc2)c2ccccc2)cc1", "note": "(centres unmarked) [Exemple 2, 1-[2-(4-fluorophényl)-2-phényl éthyl]-1H-imidazole]", "values": [{"measurement": "solubilité", "setting": "[1]; [3]", "result": "soluble"}, {"measurement": "solubilité", "setting": "[1]; [4]", "result": "insoluble"}, {"measurement": "DL₅₀", "setting": "[2]; souris femelle", "result": "465 (438-502) mg/kg"}, {"measurement": "DL₅₀", "setting": "[2]; souris mâle", "result": "524 (457-538) mg/kg"}]}
{"smiles": "Brc1ccc(C(Cn2ccnc2)c2ccccc2)cc1", "note": "(centres unmarked) [Exemple 1, 1-[2-(4-bromophényl)-2-phényléthyl]-1H-imidazole]", "values": [{"measurement": "solubilité", "setting": "[1]; [3]", "result": "soluble"}, {"measurement": "solubilité", "setting": "[1]; [4]", "result": "insoluble"}, {"measurement": "DL₅₀", "setting": "[2]; souris femelle", "result": "375 (350-400) mg/kg"}, {"measurement": "DL₅₀", "setting": "[2]; souris mâle", "result": "450 (400-475) mg/kg"}]}
